Results taken from ChEMBL document CHEMBL5303763, “Data for DCP probe BI-3802” (2023).

Tests used:
[1] = target: Phosphatidylinositol 4,5-bisphosphate 3-kinase catalytic subunit gamma isoform (Homo sapiens) (UniProt P48736); test: PIK3CG Invitrogen Lab (UK) kinase screen (BI); conditions: Compound concentration 1.0 uM
[2] = target: Inhibitor of nuclear factor kappa-B kinase subunit beta (Homo sapiens) (UniProt O14920); test: IKBKB Invitrogen Lab (UK) kinase screen (BI); conditions: Compound concentration 1.0 uM
[3] = target: T1, 5-hydroxytryptamine receptor 1A (Homo sapiens) (UniProt P08908); test: 5HT1A/H Eurofins SafetyScreen44 (BI); conditions: Compound concentration 10.0 uM
T1 sequence (whole entry): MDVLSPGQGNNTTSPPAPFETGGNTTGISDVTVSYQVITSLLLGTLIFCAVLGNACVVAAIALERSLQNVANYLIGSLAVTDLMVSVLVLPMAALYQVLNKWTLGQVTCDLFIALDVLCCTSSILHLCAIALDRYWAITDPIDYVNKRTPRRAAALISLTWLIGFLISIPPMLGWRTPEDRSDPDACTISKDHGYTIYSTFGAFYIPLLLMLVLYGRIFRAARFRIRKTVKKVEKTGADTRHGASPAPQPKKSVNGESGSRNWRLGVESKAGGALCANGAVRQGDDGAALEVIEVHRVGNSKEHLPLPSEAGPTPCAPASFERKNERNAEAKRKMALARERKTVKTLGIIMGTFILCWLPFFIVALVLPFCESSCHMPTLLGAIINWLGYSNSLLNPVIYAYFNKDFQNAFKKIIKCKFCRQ

[4] = target: RAF proto-oncogene serine/threonine-protein kinase (Homo sapiens) (UniProt P04049); test: RAF1 Invitrogen Lab (UK) kinase screen (BI); conditions: Compound concentration 1.0 uM
[5] = target: Beta-1 adrenergic receptor (Homo sapiens) (UniProt P08588); test: BETA1/HUM Eurofins SafetyScreen44 (BI); conditions: Compound concentration 10.0 uM
Chain of Beta-1 adrenergic receptor (Homo sapiens) (P08588 whole entry, looked up): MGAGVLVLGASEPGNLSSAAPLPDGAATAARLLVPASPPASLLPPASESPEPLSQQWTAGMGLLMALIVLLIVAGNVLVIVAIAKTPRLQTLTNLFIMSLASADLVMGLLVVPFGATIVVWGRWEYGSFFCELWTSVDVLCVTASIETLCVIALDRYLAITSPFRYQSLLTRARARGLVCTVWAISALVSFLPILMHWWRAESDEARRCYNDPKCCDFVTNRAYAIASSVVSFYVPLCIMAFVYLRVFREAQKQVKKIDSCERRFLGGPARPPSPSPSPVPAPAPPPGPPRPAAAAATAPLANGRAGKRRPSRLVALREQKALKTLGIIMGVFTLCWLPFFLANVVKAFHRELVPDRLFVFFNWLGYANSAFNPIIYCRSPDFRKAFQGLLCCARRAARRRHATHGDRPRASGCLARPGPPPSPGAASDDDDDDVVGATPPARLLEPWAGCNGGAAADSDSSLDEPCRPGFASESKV

[6] = target: Angiotensin-converting enzyme (Homo sapiens) (UniProt P12821); test: ACE(HU_AMTCH400) Eurofins SafetyScreen44 (BI); conditions: Compound concentration 10.0 uM
[7] = target: MAO-A (Amine oxidase [flavin-containing] A) (Rattus norvegicus, UniProt P21396); test: MAO-A_ANTAG Eurofins SafetyScreen44 (BI); design: scale not given: the % may be the effect or the level left; conditions: compound concentration 10 uM, read-out: % Ctrl
[8] = target: Alpha-1B adrenergic receptor (Homo sapiens) (UniProt P35368); conditions: Compound concentration 10.0 uM
Chain of Alpha-1B adrenergic receptor (Homo sapiens) (P35368 whole entry): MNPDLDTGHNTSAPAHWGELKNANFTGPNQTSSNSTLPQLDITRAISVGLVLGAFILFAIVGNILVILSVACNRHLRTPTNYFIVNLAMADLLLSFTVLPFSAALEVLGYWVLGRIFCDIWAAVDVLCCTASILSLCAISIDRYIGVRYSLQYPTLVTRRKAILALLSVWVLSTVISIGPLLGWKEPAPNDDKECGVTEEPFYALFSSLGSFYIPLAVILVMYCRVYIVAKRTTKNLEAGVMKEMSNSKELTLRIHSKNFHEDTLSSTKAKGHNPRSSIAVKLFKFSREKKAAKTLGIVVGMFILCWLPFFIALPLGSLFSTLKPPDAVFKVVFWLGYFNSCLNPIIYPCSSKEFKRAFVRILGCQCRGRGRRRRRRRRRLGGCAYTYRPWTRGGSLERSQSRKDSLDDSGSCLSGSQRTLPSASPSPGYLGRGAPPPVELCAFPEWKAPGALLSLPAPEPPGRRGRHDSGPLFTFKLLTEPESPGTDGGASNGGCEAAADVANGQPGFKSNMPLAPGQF

[9] = target: D(1A) dopamine receptor (Homo sapiens) (UniProt P21728); conditions: Compound concentration 10.0 uM
Chain of D(1A) dopamine receptor (Homo sapiens) (P21728 whole entry): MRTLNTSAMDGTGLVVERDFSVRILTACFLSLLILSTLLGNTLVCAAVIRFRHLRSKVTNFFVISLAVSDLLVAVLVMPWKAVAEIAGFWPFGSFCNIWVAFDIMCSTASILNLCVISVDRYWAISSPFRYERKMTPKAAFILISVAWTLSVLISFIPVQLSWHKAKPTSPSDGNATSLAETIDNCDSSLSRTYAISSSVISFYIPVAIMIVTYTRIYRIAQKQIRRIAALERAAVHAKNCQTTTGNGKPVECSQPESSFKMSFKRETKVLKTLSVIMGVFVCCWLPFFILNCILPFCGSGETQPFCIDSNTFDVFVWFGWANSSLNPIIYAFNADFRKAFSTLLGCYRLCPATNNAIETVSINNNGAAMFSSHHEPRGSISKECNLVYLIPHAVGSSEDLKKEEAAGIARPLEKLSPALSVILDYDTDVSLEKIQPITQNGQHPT

[10] = target: Mitogen-activated protein kinase 8 (Homo sapiens) (UniProt P45983); test: MAPK8 Invitrogen Lab (UK) kinase screen (BI); conditions: Compound concentration 1.0 uM
[11] = target: Glutamate NMDA receptor (Rattus norvegicus) (UniProt P35439+Q00959+Q00960+Q00961+Q62645+Q8VHN2+Q9R1M7); test: NMDA/R Eurofins SafetyScreen44 (BI); type: protein-complex assay; conditions: Compound concentration 10.0 uM
[12] = target: T2, 5-hydroxytryptamine receptor 3A (Homo sapiens) (UniProt P46098); test: 5HT3/H Eurofins SafetyScreen44 (BI); conditions: Compound concentration 10.0 uM
T2 sequence (whole entry): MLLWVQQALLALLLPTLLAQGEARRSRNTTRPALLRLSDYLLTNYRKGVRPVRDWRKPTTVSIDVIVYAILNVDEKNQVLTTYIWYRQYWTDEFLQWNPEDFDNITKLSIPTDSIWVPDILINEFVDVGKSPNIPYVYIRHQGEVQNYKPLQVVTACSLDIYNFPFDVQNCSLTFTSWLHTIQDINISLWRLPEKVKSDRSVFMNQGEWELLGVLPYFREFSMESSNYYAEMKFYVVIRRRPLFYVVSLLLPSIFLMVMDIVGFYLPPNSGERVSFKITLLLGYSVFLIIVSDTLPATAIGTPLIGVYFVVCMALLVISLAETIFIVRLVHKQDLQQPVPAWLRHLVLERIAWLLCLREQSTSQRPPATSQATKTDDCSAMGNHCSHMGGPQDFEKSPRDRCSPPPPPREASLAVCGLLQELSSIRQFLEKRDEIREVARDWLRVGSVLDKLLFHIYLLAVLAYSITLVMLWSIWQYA

[13] = target: Androgen receptor (Homo sapiens) (UniProt P10275); test: ANDROGEN/H Eurofins SafetyScreen44 (BI); conditions: Compound concentration 10.0 uM
Chain of Androgen receptor (Homo sapiens) (P10275 whole entry): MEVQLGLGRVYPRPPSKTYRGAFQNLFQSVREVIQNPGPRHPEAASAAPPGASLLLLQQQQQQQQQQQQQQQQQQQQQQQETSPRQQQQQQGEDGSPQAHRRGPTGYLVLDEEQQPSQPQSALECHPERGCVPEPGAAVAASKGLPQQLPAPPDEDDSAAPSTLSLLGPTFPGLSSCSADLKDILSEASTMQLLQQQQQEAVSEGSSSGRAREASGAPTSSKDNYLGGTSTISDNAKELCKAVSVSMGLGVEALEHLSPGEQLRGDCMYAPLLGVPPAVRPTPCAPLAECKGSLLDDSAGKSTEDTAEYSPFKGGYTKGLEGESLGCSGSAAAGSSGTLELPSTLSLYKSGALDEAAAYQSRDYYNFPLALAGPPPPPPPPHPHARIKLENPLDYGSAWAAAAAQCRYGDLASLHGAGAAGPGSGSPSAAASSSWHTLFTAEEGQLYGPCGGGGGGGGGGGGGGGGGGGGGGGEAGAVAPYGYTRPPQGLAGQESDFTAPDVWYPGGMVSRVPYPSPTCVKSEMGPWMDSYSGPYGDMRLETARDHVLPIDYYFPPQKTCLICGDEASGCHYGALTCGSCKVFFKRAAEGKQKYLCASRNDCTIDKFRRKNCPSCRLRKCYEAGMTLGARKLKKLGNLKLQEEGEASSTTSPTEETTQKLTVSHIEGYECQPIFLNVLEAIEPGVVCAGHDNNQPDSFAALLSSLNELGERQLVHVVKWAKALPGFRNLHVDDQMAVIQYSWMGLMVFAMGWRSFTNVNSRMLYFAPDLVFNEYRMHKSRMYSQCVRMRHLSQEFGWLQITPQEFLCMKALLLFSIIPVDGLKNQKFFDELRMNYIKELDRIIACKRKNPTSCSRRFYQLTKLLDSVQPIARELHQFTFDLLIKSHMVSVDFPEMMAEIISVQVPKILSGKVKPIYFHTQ

[14] = target: Ribosomal protein S6 kinase alpha-4 (Homo sapiens) (UniProt O75676); test: RPS6KA4 Invitrogen Lab (UK) kinase screen (BI); conditions: Compound concentration 1.0 uM
[15] = target: Proto-oncogene tyrosine-protein kinase Src (Homo sapiens) (UniProt P12931); test: SRC Invitrogen Lab (UK) kinase screen (BI); conditions: Compound concentration 1.0 uM
[16] = target: Mitogen-activated protein kinase 14 (Homo sapiens) (UniProt Q16539); test: MAPK14 Invitrogen Lab (UK) kinase screen (BI); conditions: Compound concentration 1.0 uM
[17] = target: Serine/threonine-protein kinase PAK 4 (Homo sapiens) (UniProt O96013); test: PAK4 Invitrogen Lab (UK) kinase screen (BI); conditions: Compound concentration 1.0 uM
[18] = target: Tyrosine-protein kinase ABL1 (Homo sapiens) (UniProt P00519); test: ABL1 Invitrogen Lab (UK) kinase screen (BI); conditions: Compound concentration 1.0 uM
[19] = target: Serine/threonine-protein kinase PLK1 (Homo sapiens) (UniProt P53350); test: PLK1 Invitrogen Lab (UK) kinase screen (BI); conditions: Compound concentration 1.0 uM
[20] = target: GABA-A receptor; anion channel (Rattus norvegicus) (UniProt O09028+P15431+P18506+P18508+P19969+P20236+P23574+P23576+P28471+P28473+P30191+P62813+P63079+P63138+Q91ZM7+Q9ES14); test: BZD/CENTR/R Eurofins SafetyScreen44 (BI); type: protein-complex assay; conditions: Compound concentration 10.0 uM
[21] = target: Insulin receptor (Homo sapiens) (UniProt P06213); test: INSR Invitrogen Lab (UK) kinase screen (BI); conditions: Compound concentration 1.0 uM
[22] = target: Mu-type opioid receptor (Homo sapiens) (UniProt P35372); test: MU/H Eurofins SafetyScreen44 (BI); conditions: Compound concentration 10.0 uM
Chain of Mu-type opioid receptor (Homo sapiens) (P35372 whole entry): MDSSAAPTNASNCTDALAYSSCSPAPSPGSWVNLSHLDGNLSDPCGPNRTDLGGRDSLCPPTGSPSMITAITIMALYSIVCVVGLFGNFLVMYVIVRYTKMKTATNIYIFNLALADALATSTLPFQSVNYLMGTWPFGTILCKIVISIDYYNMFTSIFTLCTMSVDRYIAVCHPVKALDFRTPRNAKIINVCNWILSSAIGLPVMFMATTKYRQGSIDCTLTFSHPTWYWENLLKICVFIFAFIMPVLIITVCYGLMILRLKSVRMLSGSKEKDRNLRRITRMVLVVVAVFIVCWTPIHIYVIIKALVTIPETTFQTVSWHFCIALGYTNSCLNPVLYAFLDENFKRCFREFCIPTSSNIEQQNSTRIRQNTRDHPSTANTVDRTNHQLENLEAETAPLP

[23] = target: Delta-type opioid receptor (Homo sapiens) (UniProt P41143); conditions: Compound concentration 10.0 uM
Chain of Delta-type opioid receptor (Homo sapiens) (P41143 whole entry): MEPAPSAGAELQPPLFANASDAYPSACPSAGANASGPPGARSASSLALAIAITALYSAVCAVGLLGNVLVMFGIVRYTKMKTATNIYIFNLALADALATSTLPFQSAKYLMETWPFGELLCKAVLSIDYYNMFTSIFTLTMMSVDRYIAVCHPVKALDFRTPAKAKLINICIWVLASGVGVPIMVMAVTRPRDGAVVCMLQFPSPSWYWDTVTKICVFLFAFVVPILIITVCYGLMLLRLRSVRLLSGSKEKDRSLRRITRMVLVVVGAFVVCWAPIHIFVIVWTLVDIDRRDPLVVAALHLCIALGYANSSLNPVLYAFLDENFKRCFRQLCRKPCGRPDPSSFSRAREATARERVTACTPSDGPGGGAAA

hERG (KCNH2) = hERG (KCNH2) (Homo sapiens, UniProt Q12809); test: HERG_DOFETILIDE Eurofins SafetyScreen44 (BI); conditions: probe [3H] Dofetilide, compound concentration 10 uM, read-out: % Ctrl
Chain of hERG (KCNH2) (Q12809 whole entry): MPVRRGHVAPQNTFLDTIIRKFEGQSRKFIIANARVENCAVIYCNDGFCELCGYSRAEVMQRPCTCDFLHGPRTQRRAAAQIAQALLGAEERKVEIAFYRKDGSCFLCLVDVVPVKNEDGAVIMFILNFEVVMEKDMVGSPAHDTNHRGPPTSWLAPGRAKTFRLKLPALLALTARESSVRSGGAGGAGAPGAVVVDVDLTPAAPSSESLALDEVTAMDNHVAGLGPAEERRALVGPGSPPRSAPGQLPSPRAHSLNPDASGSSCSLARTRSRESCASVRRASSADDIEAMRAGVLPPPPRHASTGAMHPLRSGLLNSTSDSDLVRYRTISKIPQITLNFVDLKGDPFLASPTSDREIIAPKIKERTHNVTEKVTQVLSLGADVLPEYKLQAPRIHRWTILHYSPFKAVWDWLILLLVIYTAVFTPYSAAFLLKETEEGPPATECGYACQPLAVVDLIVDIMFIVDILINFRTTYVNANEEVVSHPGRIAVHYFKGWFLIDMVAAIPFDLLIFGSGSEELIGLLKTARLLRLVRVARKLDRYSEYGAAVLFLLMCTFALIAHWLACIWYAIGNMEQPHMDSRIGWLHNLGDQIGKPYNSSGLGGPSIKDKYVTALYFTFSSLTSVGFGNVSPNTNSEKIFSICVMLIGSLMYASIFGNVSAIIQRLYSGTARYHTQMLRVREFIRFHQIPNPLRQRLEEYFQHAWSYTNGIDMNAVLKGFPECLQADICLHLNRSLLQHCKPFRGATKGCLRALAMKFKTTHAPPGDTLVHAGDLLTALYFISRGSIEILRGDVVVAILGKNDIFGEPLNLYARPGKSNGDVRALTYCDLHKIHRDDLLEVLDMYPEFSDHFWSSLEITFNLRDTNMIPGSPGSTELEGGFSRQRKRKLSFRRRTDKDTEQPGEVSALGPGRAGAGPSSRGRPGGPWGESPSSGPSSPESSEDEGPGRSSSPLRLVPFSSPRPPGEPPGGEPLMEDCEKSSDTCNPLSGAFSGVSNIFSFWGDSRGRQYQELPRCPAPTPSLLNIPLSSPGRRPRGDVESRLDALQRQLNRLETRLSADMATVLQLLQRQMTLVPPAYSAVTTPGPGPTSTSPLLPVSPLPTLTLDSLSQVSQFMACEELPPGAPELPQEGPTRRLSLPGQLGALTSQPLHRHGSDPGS

[24] = target: Cholecystokinin receptor type A (Homo sapiens) (UniProt P32238); test: CCKA/H Eurofins SafetyScreen44 (BI); conditions: Compound concentration 10.0 uM
[25] = target: D(4) dopamine receptor (Homo sapiens) (UniProt P21917); conditions: Compound concentration 10.0 uM
[26] = target: 5-hydroxytryptamine receptor 2C (Homo sapiens) (UniProt P28335); conditions: Compound concentration 10.0 uM
Chain of 5-hydroxytryptamine receptor 2C (Homo sapiens) (P28335 whole entry): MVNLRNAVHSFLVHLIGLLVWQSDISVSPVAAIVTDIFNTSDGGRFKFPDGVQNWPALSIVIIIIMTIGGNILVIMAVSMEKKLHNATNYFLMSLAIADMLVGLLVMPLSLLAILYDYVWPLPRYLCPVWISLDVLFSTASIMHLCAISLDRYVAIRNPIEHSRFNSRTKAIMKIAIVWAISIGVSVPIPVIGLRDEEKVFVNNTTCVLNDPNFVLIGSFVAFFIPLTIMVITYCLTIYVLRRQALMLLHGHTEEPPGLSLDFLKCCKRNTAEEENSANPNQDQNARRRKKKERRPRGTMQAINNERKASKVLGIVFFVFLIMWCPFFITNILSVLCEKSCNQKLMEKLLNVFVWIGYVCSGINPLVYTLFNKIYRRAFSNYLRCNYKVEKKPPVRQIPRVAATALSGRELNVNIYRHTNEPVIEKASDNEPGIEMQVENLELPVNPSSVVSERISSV

[27] = target: L-type Ca2+ channel (dihydropyridine site), Voltage-dependent L-type calcium channel subunit alpha-1C (Rattus norvegicus, UniProt P22002); test: CA+/DHPSI/R Eurofins SafetyScreen44 (BI); conditions: rat brain, probe [3H](+)PN200-110, compound concentration 10 uM, read-out: % Ctrl
[28] = target: D(2) dopamine receptor (Homo sapiens) (UniProt P14416); conditions: Compound concentration 10.0 uM

CNC(=O)COc1cc2cc(Nc3nc(N4C[C@H](C)C[C@H](C)C4)ncc3Cl)ccc2n(C)c1=O
residual activity [1]: 95%
residual activity [2]: 102%
residual activity [3]: 90%
residual activity [4]: 94%
residual activity [5]: 99%
residual activity [6]: 106%
activity at 10 µM [7]: 89% (not active)
inhibition [8]: -0.36%
inhibition [9]: -4.07%
residual activity [10]: 120%
residual activity [11]: 78%
residual activity [12]: 101%
residual activity [13]: 103%
residual activity [14]: 99%
residual activity [15]: 105%
residual activity [16]: 100%
residual activity [17]: 94%
residual activity [18]: 103%
residual activity [19]: 92%
residual activity [20]: 97%
residual activity [21]: 100%
residual activity [22]: 81%
inhibition [23]: 13.3%
activity at 10 µM (hERG (KCNH2)): 76% (not active)
residual activity [24]: 100%
inhibition [25]: -9.6%
inhibition [26]: 0.15%
activity at 10 µM [27]: 99% (not active)
inhibition [28]: -8.96%

C[C@@H]1C[C@H](C)CN(c2ncc(Cl)c(Nc3ccc4c(c3)cc(OC(C)(C)C(=O)O)c(=O)n4C)n2)C1
residual activity [3]: 97%
residual activity [5]: 99%
residual activity [6]: 111%
activity at 10 µM [7]: 96% (not active)
residual activity [11]: 88%
residual activity [12]: 95%
residual activity [13]: 104%
residual activity [20]: 147%
residual activity [22]: 44%
activity at 10 µM (hERG (KCNH2)): 95% (not active)
residual activity [24]: 137%
activity at 10 µM [27]: 104% (not active)
